# Laboratory results taken from patent publication US10286063B2 (priority 2015, dated 2019).
# Tested on: PBMC
# Format: cell-based, human
sequence,measurement,value
"RGILKRNSSSSSTDS [Peptide 5-HUMAN-B, reference compound]",% Inhibition by HLA-DR blocking Ab,100%
